Experimental data taken from PMC11173485, “Connecting GSK-3β Inhibitory Activity with IKK-β or ROCK-1 Inhibition to Target Tau Aggregation and Neuroinflammation in Alzheimer’s Disease—Discovery, In Vitro and In Cellulo Activity of Thiazole-Based Inhibitors” (Molecules, 2024).

Columns and labels:
[1] = system: HT-22 (mouse hippocampal neuronal cells); assay: Cytotoxicity, PrestoBlue cell viability assay in HT-22 cells; format: cell-based; details: for effect on cell viability in HT-22 cells (in words): 0.1, 1, 10, 50, and 100 µM
Procedure: (§1) We assessed their cytotoxic effects at five concentrations (0.1, 1, 10, 50, and 100 µM) in HT-22 (mouse hippocampal neuronal cells) and BV-2 (mouse microglial cells) cell lines using a fluorometric assay with PrestoBlue™ cell viability reagent (Table 4, Table S2 in the SI).
(§2) Mouse microglial cells (BV-2) were a generous gift from Professor Bozena Kaminska-Kaczmarek of the Laboratory of Molecular Neurobiology, Neurobiology Center, Nencki Institute of Experimental Biology, Polish Academy of Sciences, Warsaw, Poland. Cells were cultured in Dulbecco’s modified Eagle’s Medium-high glucose (DMEM, Glutamx Thermo Fisher, Waltham, MA, USA) supplemented with 10% inactivated fetal bovine serum (Thermo Fisher), 100 IU/mL penicillin (Merck), and 100 µg/mL streptomycin (Merck). Cells were cultured in flasks (area 175 cm^2, Nunc) and incubated at 37 °C, 5% CO2. To evaluate the level of NO, IL-6, and TNF-α and the effectiveness of the compounds tested, BV-2 microglia cells were cultured in 96-well culture plates (5 × 10^4 cells per well, Falcon). For the measurement of cell viability and cell membrane damage, cells were placed in 96-well culture plates (2 × 10^4 cells per well, Falcon). Before the tests, cells were grown for 24 h in the incubator (37 °C, 5% CO2). Mouse Hippocampal Neuronal Cell Line (HT-22) was a generous gift from Dr Bartosz Pomierny of the Department of Biochemical Toxicology, Jagiellonian University Medical College, Krakow, Poland. Cells were cultured in Dulbecco’s modified Eagle’s Medium-high glucose (DMEM, Glutamx Thermo Fisher) supplemented with 10% inactivated fetal bovine serum (Thermo Fisher), 100 IU/mL penicillin (Merck), and 100 µg/mL streptomycin (Merck). Cells were cultured in flasks (area 175 cm^2, Nunc) and incubated at 37 °C, 5% CO2. For the measurement of cell viability and neuroprotective effects against okadaic acid, cells were placed in 96-well culture plates (2 × 10^4 cells per well, Falcon). Before the tests, cells were grown for 24 h in the incubator (37 °C, 5% CO2).
(§3) Cell viability was evaluated using the PrestoBlue reagent (Thermo Fisher), according to the manufacturer’s procedures. Following 24 h of incubation with the tested molecule, PrestoBlue reagent was added to a microplate well in an amount equal to one-tenth of the remaining medium volume. The resulting mixture was incubated for 15 min at 37 °C, and the fluorescence intensity (EX 530; EM 580 nm) was measured using the plate reader POLARstar Omega, (BMG Labtech, Ortenberg, Germany). The results (viability values) are provided as a percentage of live cells with respect to DMSO (control sample).
(§4) Cytotoxic effects of selected inhibitors in HT-22 mouse hippocampal neuronal cells and BV-2 mouse microglial cells
(§5) Table S2. Cytotoxic effects of selected inhibitors in HT-22 mouse hippocampal neuronal cells and BV-2 mouse microglial cells. neurotoxicity in HT-22 cellsa immunotoxicity in BV-2 cellsa […]
(§6) a % of cell viability at the given concentration of tested compound; mean value ± standard deviation (SD) of triplicates; b half maximal inhibitory concentration of the tested compound; mean value ± standard error of the mean (SEM) of triplicates; c data obtained in log C of 39 of -8.5; -7.5; -6.5; -5.5; -5, respectively; d data obtained in log C of 49 of -7.5; -6.5; -5.5; -4.5; -4. respectively; nt, not tested.

[2] = as above; format: cell-based, mouse; details: mouse, HT-22 hippocampal neuronal cells, 24 h; for viability at 24 h, 1 µM: 1 µM (log C -6); for viability at 24 h, 1 µM / viability at 24 h, 10 µM / viability at 24 h, 50 µM / viability at 24 h, 100 µM / viability at 24 h, 0.1 µM: read-out: neurotoxicity in HT-22 cells, % of cell viability; for viability at 24 h, 10 µM: 10 µM (log C -5); for viability at 24 h, 50 µM: 50 µM (log C -4.3); for viability at 24 h, 100 µM: 100 µM (log C -4); for IC50 at 24 h: PrestoBlue, mean ± SEM, read-out: Cytotoxicity in HT-22 Cells (IC50 x¯ ± SEM µM)
Procedure: as §1, §2, §3, §4, §5, §6

For CC(C)C(=O)Nc1cc(-c2cc3c(s2)C(=O)NC(C)(C)N3)ccn1 [Compound 39, N-(4-(2,2-Dimethyl-4-oxo-1,2,3,4-tetrahydrothieno [3,2-d]pyrimidin-6-yl)pyridin-2-yl)isobutyramide], which “effect on cell viability in HT-22 cells (in words)” value (“effect on cell viability” for short) [1] is on record?
The value was “decreased cells’ viability”.

And the viability at 24 h, 1 µM [2]?
Its viability at 24 h, 1 µM is 84%.

What about the viability at 24 h, 10 µM [2] of the same compound?
The viability at 24 h, 10 µM was 55%.

What about the viability at 24 h, 50 µM [2] of the same compound?
The viability at 24 h, 50 µM was 35%.

And the viability at 24 h, 100 µM [2]?
The viability at 24 h, 100 µM was 29%.

And the IC50 at 24 h [2]?
The IC50 at 24 h was 8.4 ± 5.3 µM.

And the viability at 24 h, 0.1 µM [2]?
Its viability at 24 h, 0.1 µM is 91%.

Which “effect on cell viability” value [1] does the source give for CC1(C)NC(=O)c2sc(-c3ccnc(NC(=O)C4CC4)c3)cc2N1 [Compound 40, N-(4-(2,2-Dimethyl-4-oxo-1,2,3,4-tetrahydrothieno [3,2-d]pyrimidin-6-yl)pyridin-2-yl)-cyclopropanecarboxamide] here?
The value was “decreased cells’ viability”.

And the viability at 24 h, 1 µM [2]?
Its viability at 24 h, 1 µM is 105%.

And the viability at 24 h, 10 µM [2]?
The viability at 24 h, 10 µM was 71%.

What about the viability at 24 h, 50 µM [2] of the same compound?
Its viability at 24 h, 50 µM is 28%.

And the viability at 24 h, 100 µM [2]?
Its viability at 24 h, 100 µM is 21%.

And the IC50 at 24 h [2]?
Its IC50 at 24 h is 19.9 ± 4.1 µM.

What about the viability at 24 h, 0.1 µM [2] of the same compound?
The viability at 24 h, 0.1 µM was 100%.

For CC1(C)NC(=O)c2sc(-c3ccnc(NC(=O)C4CCC4)c3)cc2N1 [Compound 41, N-(4-(2,2-Dimethyl-4-oxo-1,2,3,4-tetrahydrothieno [3,2-d]pyrimidin-6-yl)pyridin-2-yl)-cyclobutanecarboxamide], which “effect on cell viability” value [1] is on record?
The value was “decreased cells’ viability”.

Which “effect on cell viability” value [1] does the source give for CC(C)C(=O)Nc1cc(-c2cc(NC(N)=O)c(C(N)=O)s2)ccn1 [Compound 48, 5-(2-Isobutyramidopyridin-4-yl)-3-ureidothiophene-2-carboxamide] here?
Its value is “decreased cells’ viability”.

What about the viability at 24 h, 1 µM [2] of the same compound?
Its viability at 24 h, 1 µM is 89%.

What about the viability at 24 h, 10 µM [2] of the same compound?
The viability at 24 h, 10 µM was 77%.

What about the viability at 24 h, 50 µM [2] of the same compound?
Its viability at 24 h, 50 µM is 52%.

And the IC50 at 24 h [2]?
The IC50 at 24 h was 36.6 ± 4.3 µM.

And the viability at 24 h, 0.1 µM [2]?
The viability at 24 h, 0.1 µM was 92%.

Which “effect on cell viability” value [1] does the source give for NC(=O)Nc1cc(-c2ccnc(NC(=O)C3CC3)c2)sc1C(N)=O [Compound 49, 5-(2-(Cyclopropanecarboxamido)pyridin-4-yl)-3-ureidothiophene-2-carboxamide] here?
The value was “no significant decrease in cell viability”.

And the “effect on viability of HT-22 cells at concentrations up to 10 µM (in words)” value [1]?
The value was “did not decrease the viability of the cells”.

And the viability at 24 h, 1 µM [2]?
The viability at 24 h, 1 µM was 102%.

What about the viability at 24 h, 10 µM [2] of the same compound?
Its viability at 24 h, 10 µM is 101%.

What about the viability at 24 h, 50 µM [2] of the same compound?
The viability at 24 h, 50 µM was 88%.

What about the viability at 24 h, 100 µM [2] of the same compound?
Its viability at 24 h, 100 µM is 76%.

What about the IC50 at 24 h [2] of the same compound?
The IC50 at 24 h was > 100 µM.

What about the viability at 24 h, 0.1 µM [2] of the same compound?
The viability at 24 h, 0.1 µM was 95%.

Which “effect on cell viability” value [1] does the source give for NC(=O)Nc1cc(-c2ccnc(NC(=O)C3CCC3)c2)sc1C(N)=O [Compound 50, 5-(2-(Cyclobutanecarboxamido)pyridin-4-yl)-3-ureidothiophene-2-carboxamide] here?
Its value is “no significant decrease in cell viability”.

Which results are given for NC(=O)Nc1cc(-c2cccc(NC(=O)C3CC3)c2)sc1C(N)=O [Compound 58, 5-(3-(Cyclopropanecarboxamido)phenyl)-3-ureidothiophene-2-carboxamide]?
effect on cell viability in HT-22 cells (in words) [1]: decreased cells’ viability; effect on viability of HT-22 cells at concentrations up to 10 µM (in words) [1]: did not decrease the viability of the cells; viability at 24 h, 1 µM [2]: 92%; viability at 24 h, 10 µM [2]: 89%; viability at 24 h, 50 µM [2]: 54%; viability at 24 h, 100 µM [2]: 45%; IC50 at 24 h [2]: 67.1 ± 14.5 µM; viability at 24 h, 0.1 µM [2]: 94%

What does the source list for O=C1NC2(CCCC2)Nc2cc(-c3ccnc(NC(=O)C4CC4)c3)sc21 [Compound 60, N-(4-(4’-Oxo-3’,4’-dihydro-1’H-spiro[cyclopentane-1,2’-thieno [3,2-d]pyrimidin]-6’-yl)pyridin-2-yl)cyclopropanecarboxamide]?
effect on cell viability in HT-22 cells (in words) [1]: decreased cells’ viability; viability at 24 h, 1 µM [2]: 105%; viability at 24 h, 10 µM [2]: 62%; viability at 24 h, 50 µM [2]: 36%; viability at 24 h, 100 µM [2]: 31%; IC50 at 24 h [2]: 9.7 ± 5.8 µM; viability at 24 h, 0.1 µM [2]: 101%

Which “effect on cell viability” value [1] does the source give for O=C1NC2(CCOC2)Nc2cc(-c3ccnc(NC(=O)C4CC4)c3)sc21 (stereo not drawn) [Compound 62, N-(4-(4′-Oxo-3′,4,4′,5-tetrahydro-1′H,2H-spiro[furan-3,2′-thieno [3,2-d]pyrimidin]-6′-yl)pyridin-2-yl)cyclopropanecarboxamide] here?
The value was “decreased cells’ viability”.

And the “effect on viability of HT-22 cells at concentrations up to 10 µM (in words)” value [1]?
The value was “did not decrease the viability of the cells”.

What about the viability at 24 h, 1 µM [2] of the same compound?
The viability at 24 h, 1 µM was 108%.

And the viability at 24 h, 10 µM [2]?
The viability at 24 h, 10 µM was 105%.

And the viability at 24 h, 50 µM [2]?
Its viability at 24 h, 50 µM is 35%.

And the viability at 24 h, 100 µM [2]?
The viability at 24 h, 100 µM was 29%.

What about the IC50 at 24 h [2] of the same compound?
Its IC50 at 24 h is 58.3 ± 10 µM.

And the viability at 24 h, 0.1 µM [2]?
Its viability at 24 h, 0.1 µM is 106%.

What does the source list for COc1nc(-c2ccnc(NC(=O)C3CC3)c2)sc1C(N)=O [II, reference compound]?
effect on cell viability in HT-22 cells (in words) [1]: decreased cells’ viability; viability at 24 h, 1 µM [2]: 104%; viability at 24 h, 10 µM [2]: 87%; viability at 24 h, 50 µM [2]: 77%; viability at 24 h, 100 µM [2]: 64%; IC50 at 24 h [2]: > 100 µM; viability at 24 h, 0.1 µM [2]: 107%
